From EP0504184B1, “ACTIVE AGENT AGAINST RETROVIRUS GROUP VIRUSES, COMPOSITIONS CONTAINING SAME AND THEIR USE” (PREVISAN S.A., priority 1989, dated 1991)

Experiments:
[1] = system: cellules Supt-1; assay: Toxicity test of chloroazodine towards Supt-1 cells (cell viability); assay type: cell-based, humaine
Text: (§1) Ces essais comprennent comme matériel de départ : • de la N, N'-dichloroazodicarbonamidine (chloroazodine) à 95 % pure. La pureté a été examinée par chromatographie en couche mince et par un test de carbone-hydrogène (v. BRAZ G.I. et cons., J. Applied Chem. (USSR) 17,565-9 (1944)). • un surnageant de cultures de cellules (Molt-3) continuellement productrices de virus VIH-1. Le surnageant viral utilisé a une activité de transcriptase inverse de 1 x 10^6 cpm/ml. • des cellules d'une lignée T humaine continue de phénotype T4 (Supt-1) cultivée en milieu RPMI, additionné de 10 % de sérum de veau foetal et de 1 % de glutamine.
Essai de toxicité de la chloroazodine vis-à-vis des cellules Supt-1.
La chloroazodine à la dilution de 1/500, ce qui correspond à 2 mg/ml, est toxique pour les cellules Supt-1.

[2] = system: virus VIH-1; assay: Infectivity of pretreated HIV-1 virus for the Supt-1 line (p24 antigen in cell lysates, optical density; phase-contrast microscopy); assay type: cell-based; conditions: for multiplication du virus VIH-1 dans les cellules Supt-1: after 1, 10 and 30 minutes incubation with the agent at ordinary temperature; for Mesure d'infectivité du virus VIH-1 (D.O.492): p24 in Supt-1 lysates
Text: as §1
L' efficacité de la chloroazodine va être étudiée à deux niveaux : • a) action sur l'infectivité du virus VIH-1 pour la lignée Supt-1. • b) action sur l'intégration du génome viral dans l'ADN chromosomial des cellules Supt-1.
On fait incuber des préparations virales de VIH-1 à haut titre en présence de dilutions de chloroazodine de 1/1500 et de 1/3000 et pendant différents temps d'incubation. Pendant 30 minutes à 37°C, on traite préalablement les cellules Supt-1 par 10 µg/ml de polybrène, puis on les inocule avec les préparations de virus traités. On prévoit comme témoins, des cellules non inoculées, et des cellules inoculées par une préparation de virus non traités.
On détermine ensuite l'infectivité, à chaque passage cellulaire, de ces préparations en suivant la production virale (mesure de l'antigène p24 exprimé) dans les lysats cellulaires solubilisés des cellules Supt-1 examinées.
Les mesures du pouvoir infectieux du virus VIH-1 après incubation avec de la chloroazodine ressortent des tableaux 1 à 3 suivants, ainsi que des figures 1 à 3 qui correspondent aux tableaux 1 à 3. Sur ces figures, on trouve en ordonnée la densité optique (D.O.) et en abscisse le nombre de jours après l'infection. Le trait plein représente le témoin non traite, le trait interrompu la dilution de 1/1500 de chloroazodine, et le trait pointillé la dilution de 1/3000 de chloroazodine.

[3] = system: provirus VIH-1; assay: Integration of the viral genome into chromosomal DNA of Supt-1 cells (PCR of gag, LTR, env; hybridisation with P32 probes); assay type: cell-based; conditions: for provirus VIH-1 dans les cellules Supt-1: hybridisation with P32 probes for gag, LTR, env
Text: Intégration du génome viral dans l'ADN chromosomial des cellules Supt-1.
Par amplification génétique grâce à une polymérase thermostable, on met en évidence la présence des gènes "gag", "LTR" et "env" du provirus VIH-1. Cette technique est appelée P.C.R. (Polymerase Chain Reaction) (CHIN-YIH OU et cons., Sciences, 239, 295-297, 1988).
Cette technique est appliquée pour la détection du provirus VIH-1 dans le génome des cellules Supt-1 inoculées par du virus VIH-1 incubé avec de la chloroazodine, comme décrit dans l'exemple 4.

[4] = system: lymphocytes infectés; assay: Mortality of HIV-1 infected human peripheral blood lymphocytes with chloroazodine; assay type: cell-based, humains; conditions: for Nombre de cellules mortes / Nombre de cellules vivantes: HIV-1 infected lymphocytes + chloroazodine 1/3000
Text: Des lymphocytes humains provenant du sang périphérique de donneurs séro-négatifs (PBL) sont infectés par du VIH-1 provenant du surnageant de cellules Molt-3, c'est-à-dire de cellules continuellement productrices de ces virus.
Au jour 8 de l'infection, celle-ci est contrôlée par l'expression de l'antigène p 24 (Test Elisa, voir Exemple 4).
Quatre populations cellulaires sont étudiées quant à leur mortalité : • 1 des lymphocytes normaux en culture (Témoin A). • 2 des lymphocytes normaux en présence de chloroazodine 1/3000. • 3 des lymphocytes infectés non traités (Témoin B). • 4 des lymphocytes infectés, en présence de chloroazodine 1/3000. Tableau 4

For NC(N=NC(N)=NCl)=NCl [chloroazodine, N, N'-dichloroazodicarbonamidine], the “toxicité vis-à-vis des cellules Supt-1” value ([1]; dilution 1/500 (2 mg/ml)) was “toxique”, the “viabilité cellulaire (cellules Supt-1)” value ([1]; dilution 1/1500 (660 µg/ml)) was “ne diminuent par contre pas la viabilité cellulaire” and the “viabilité cellulaire (cellules Supt-1)” value ([1]; dilution 1/3000 (330 µg/ml)) was “ne diminuent par contre pas la viabilité cellulaire”. The “multiplication du virus VIH-1 dans les cellules Supt-1” value ([2]; dilution 1/1500) was “empêche totalement le virus VIH-1 de se multiplier”, the “multiplication du virus VIH-1 dans les cellules Supt-1” value ([2]; dilution 1/3000) was “empêche totalement le virus VIH-1 de se multiplier” and the “temps pour l'éradication totale des virus” value ([2]; low concentration, in organic medium, conclusion from examples 3 to 5) was at most 1 min. The “effet cytopathogène” value ([2]; phase-contrast microscopy, Supt-1 cells inoculated with virus pretreated with chloroazodine (control virus: syncytia from day 14)) was “aucun effet cytopathogène”, the “Mesure d'infectivité du virus VIH-1 (D.O.492)” value ([2]; virus incubated 1 minute with chloroazodine 1/1500, 10 days after infection) was 0,174 ± 0,002 and the “Mesure d'infectivité du virus VIH-1 (D.O.492)” value ([2]; virus incubated 1 minute with chloroazodine 1/1500, 14 days after infection) was 0,175 ± 0,016. The “Mesure d'infectivité du virus VIH-1 (D.O.492)” value ([2]; virus incubated 1 minute with chloroazodine 1/1500, 17 days after infection) was 0,152 ± 0,016, the “Mesure d'infectivité du virus VIH-1 (D.O.492)” value ([2]; virus incubated 1 minute with chloroazodine 1/1500, 21 days after infection) was 0,183 ± 0,026 and the “Mesure d'infectivité du virus VIH-1 (D.O.492)” value ([2]; virus incubated 1 minute with chloroazodine 1/1500, 24 days after infection) was 0,180 ± 0,008. The “Mesure d'infectivité du virus VIH-1 (D.O.492)” value ([2]; virus incubated 1 minute with chloroazodine 1/3000, 10 days after infection) was 0,173 ± 0,009, the “Mesure d'infectivité du virus VIH-1 (D.O.492)” value ([2]; virus incubated 1 minute with chloroazodine 1/3000, 14 days after infection) was 0,149 ± 0,002 and the “Mesure d'infectivité du virus VIH-1 (D.O.492)” value ([2]; virus incubated 1 minute with chloroazodine 1/3000, 17 days after infection) was 0,172 ± 0,016. For the same molecule, the “Mesure d'infectivité du virus VIH-1 (D.O.492)” value ([2]; virus incubated 1 minute with chloroazodine 1/3000, 21 days after infection) was 0,202 ± 0,003, the “Mesure d'infectivité du virus VIH-1 (D.O.492)” value ([2]; virus incubated 1 minute with chloroazodine 1/3000, 24 days after infection) was 0,166 ± 0,004 and the “Mesure d'infectivité du virus VIH-1 (D.O.492)” value ([2]; virus incubated 10 minutes with chloroazodine 1/1500, 10 days after infection) was 0,146 ± 0,004. For the same molecule, the “Mesure d'infectivité du virus VIH-1 (D.O.492)” value ([2]; virus incubated 10 minutes with chloroazodine 1/1500, 14 days after infection) was 0,151 ± 0,006, the “Mesure d'infectivité du virus VIH-1 (D.O.492)” value ([2]; virus incubated 10 minutes with chloroazodine 1/1500, 17 days after infection) was 0,165 ± 0,013 and the “Mesure d'infectivité du virus VIH-1 (D.O.492)” value ([2]; virus incubated 10 minutes with chloroazodine 1/1500, 21 days after infection) was 0,188 ± 0,016. The “Mesure d'infectivité du virus VIH-1 (D.O.492)” value ([2]; virus incubated 10 minutes with chloroazodine 1/1500, 24 days after infection) was 0,180 ± 0,008, the “Mesure d'infectivité du virus VIH-1 (D.O.492)” value ([2]; virus incubated 10 minutes with chloroazodine 1/3000, 10 days after infection) was 0,202 ± 0,021 and the “Mesure d'infectivité du virus VIH-1 (D.O.492)” value ([2]; virus incubated 10 minutes with chloroazodine 1/3000, 14 days after infection) was 0,146 ± 0,010. For the same molecule, the “Mesure d'infectivité du virus VIH-1 (D.O.492)” value ([2]; virus incubated 10 minutes with chloroazodine 1/3000, 17 days after infection) was 0,157 ± 0,005, the “Mesure d'infectivité du virus VIH-1 (D.O.492)” value ([2]; virus incubated 10 minutes with chloroazodine 1/3000, 21 days after infection) was 0,182 ± 0,018 and the “Mesure d'infectivité du virus VIH-1 (D.O.492)” value ([2]; virus incubated 10 minutes with chloroazodine 1/3000, 24 days after infection) was 0,166 ± 0,004. For the same molecule, the “Mesure d'infectivité du virus VIH-1 (D.O.492)” value ([2]; virus incubated 30 minutes with chloroazodine 1/1500, 10 days after infection) was 0,185 ± 0,008, the “Mesure d'infectivité du virus VIH-1 (D.O.492)” value ([2]; virus incubated 30 minutes with chloroazodine 1/1500, 14 days after infection) was 0,142 ± 0,010 and the “Mesure d'infectivité du virus VIH-1 (D.O.492)” value ([2]; virus incubated 30 minutes with chloroazodine 1/1500, 17 days after infection) was 0,176 ± 0,004. The “Mesure d'infectivité du virus VIH-1 (D.O.492)” value ([2]; virus incubated 30 minutes with chloroazodine 1/1500, 21 days after infection) was 0,194 ± 0,007, the “Mesure d'infectivité du virus VIH-1 (D.O.492)” value ([2]; virus incubated 30 minutes with chloroazodine 1/1500, 24 days after infection) was 0,163 ± 0,003 and the “Mesure d'infectivité du virus VIH-1 (D.O.492)” value ([2]; virus incubated 30 minutes with chloroazodine 1/3000, 10 days after infection) was 0,205 ± 0,013. For the same molecule, the “Mesure d'infectivité du virus VIH-1 (D.O.492)” value ([2]; virus incubated 30 minutes with chloroazodine 1/3000, 14 days after infection) was 0,176 ± 0,005, the “Mesure d'infectivité du virus VIH-1 (D.O.492)” value ([2]; virus incubated 30 minutes with chloroazodine 1/3000, 17 days after infection) was 0,174 ± 0,015 and the “Mesure d'infectivité du virus VIH-1 (D.O.492)” value ([2]; virus incubated 30 minutes with chloroazodine 1/3000, 21 days after infection) was 0,169 ± 0,000. The “Mesure d'infectivité du virus VIH-1 (D.O.492)” value ([2]; virus incubated 30 minutes with chloroazodine 1/3000, 24 days after infection) was 0,172 ± 0,031, the “oligonucléotides amplifiés et visibles aux UV” value ([3]; PCR, ethidium bromide) was “apparaissent uniquement dans les tubes à essais qui correspondent à une inoculation par du virus VIH-1 non traité à la chloroazodine” and the “provirus VIH-1 dans les cellules Supt-1” value ([3]; virions treated at dilution 1/1500) was “absence totale de provirus VIH-1”. For the same molecule, the “provirus VIH-1 dans les cellules Supt-1” value ([3]; virions treated at dilution 1/3000) was “absence totale de provirus VIH-1”, the “Nombre de cellules mortes” value ([4]; duration 1 min) was 31 and the “Nombre de cellules vivantes” value ([4]; duration 1 min) was 17. For the same molecule, the “Nombre de cellules mortes” value ([4]; duration 10 min) was 34, the “Nombre de cellules vivantes” value ([4]; duration 10 min) was 14 and the “Nombre de cellules mortes” value ([4]; duration 30 min) was 39. The “Nombre de cellules vivantes” value ([4]; duration 30 min) was 21, the “Nombre de cellules mortes” value ([4]; duration 180 min) was 20 and the “Nombre de cellules vivantes” value ([4]; duration 180 min) was 8. The “toxicité sélective pour des cellules infectées” value ([4]; conclusion from comparison of infected and normal lymphocytes, chloroazodine 1/3000) was “toxicité sélective de la chloroazodine pour des cellules infectées”.
